According to patent publication US9701685B2, “Spiropyrrolidines as MDM2 inhibitors” (HUDSON BIOPHARMA INC., priority 2014, dated 2017):

Tests used:
[1] = test system: SJSA-1; test: Cell proliferation inhibition (CCK-8) against SJSA-1; assay type: cell-based; conditions: SJSA-1 human osteosarcoma cells, 5 days
Description: Cellular data of selected compounds against SW480 and SJSA-1 was conducted according to the following protocol.
Cells in the logarithmic growth phase were seeded into 96-well plates (Corning, 3599; 180 μL/well; 3000 cells/well for both SW480 and SJSA-1 cell lines) and cultured in an incubator (Thermo, 3111) for 24 h. Cells were then treated in triplicate by adding 20 μL/well solution containing different concentrations of the tested compounds in 5% CO2 at 37° C. for 5 days. After that, cells were treated for additional 4 h by adding 10 μL/well Cell Counting Kit-8 (CCK-8; DojinDo, CK04) solution. Finally, the absorbance was read at 450 nm with a microplate reader spectra-MAX190 (Molecular Devices, Sunnyvale, Calif.). The IC50 value was determined with SofeMax Pro, a software equipped in this reader. The cell proliferation inhibition rate was calculated as: proliferation inhibition (%)=[1-(A450 treated/A450 control)]×100%.
All the tested compounds could be dissolved in DMSO at 10^−2 M (as stock solution). […] The compounds were diluted at 9 3-fold serial concentrations beginning at the initial concentration of 10 μM (i.e., the highest final concentration to treat the cells). The detailed drug dilution protocol is: Add 5 μL stock solution (10^−2 M) into 495 μL medium, transfer 125 μL of the resulting solution (100 μM) into 250 μL medium, and repeat this till the 9th resulting concentration of 15.2 nM. Pipet 20 μL of each drug dilution into cell plates.

[2] = target: GST-tag full length MDM2 (Homo sapiens (Human), UniProt Q00987); test: MDM2-p53 TR-FRET Binding Assays; conditions: MDM2 / biotin p53 peptide
GST-tag full length MDM2, sequence (Q00987 whole entry): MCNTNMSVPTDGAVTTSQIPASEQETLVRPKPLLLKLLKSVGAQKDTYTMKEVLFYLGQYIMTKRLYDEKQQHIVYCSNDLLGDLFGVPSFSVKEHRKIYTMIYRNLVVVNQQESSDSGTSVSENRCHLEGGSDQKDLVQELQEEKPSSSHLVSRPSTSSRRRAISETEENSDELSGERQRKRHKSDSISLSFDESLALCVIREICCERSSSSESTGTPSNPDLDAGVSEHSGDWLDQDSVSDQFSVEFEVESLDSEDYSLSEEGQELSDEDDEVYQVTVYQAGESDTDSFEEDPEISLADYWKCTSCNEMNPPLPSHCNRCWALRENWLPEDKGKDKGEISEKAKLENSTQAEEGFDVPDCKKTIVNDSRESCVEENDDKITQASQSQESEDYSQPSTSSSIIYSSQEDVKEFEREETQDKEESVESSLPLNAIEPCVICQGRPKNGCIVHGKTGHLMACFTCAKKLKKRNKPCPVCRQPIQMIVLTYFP
From the text: MDM2-p53 TR-FRET Binding Assays
Examples are listed in the following.

IC50 ([1]; Homo sapiens, SJSA-1, 120 h) [nM] | IC50 [2] [nM] | IC50 [1] [nM] | Compound
≤ 20 | ≤ 3.6 |  | COc1cc(C(=O)O)ccc1NC(=O)[C@@H]1N[C@@H](CC(C)(C)CF)[C@@]2(C(=O)Nc3cc(Cl)ccc32)[C@H]1c1cccc(Cl)c1F [Example 21, 4-[(2′R,3R,3′S,5′S)-6-chloro-3′-(3-chloro-2-fluoro-phenyl)-5′-(3-fluoro-2,2-dimethyl-propyl)-2-oxo-spiro[indoline-3,4′-pyrrolidine]-2′-carbonyl]amino-3-methoxy-benzoic acid]
≤ 20 | ≤ 3.6 |  | COc1cc(C(N)=O)ccc1NC(=O)[C@@H]1N[C@@H](C[C@@H](C)C(F)(F)F)[C@@]2(C(=O)Nc3cc(Cl)ccc32)[C@H]1c1cccc(Cl)c1F [Example 28, (2′R,3R,3′S,5′S)-N-(4-carbamoyl-2-methoxy-phenyl)-6-chloro-3′-(3-chloro-2-fluoro-phenyl)-2-oxo-5′-[(2R)-3,3,3-trifluoro-2-methyl-propyl]spiro[indoline-3,4′-pyrrolidine]-2′-carboxamide]
 | ≤ 7.2 |  | COC(=O)c1ccc(NC(=O)[C@@H]2N[C@@H](CC3(CF)CC3)C3(C(=O)Nc4cc(Cl)ccc43)[C@H]2c2cccc(Cl)c2F)c(OC)c1 (stereo partly shown) [Example 73, 4-{[6-chloro-4′-(3-chloro-2-fluoro-phenyl)-2′-(1-fluoromethyl-cyclopropylmethyl)-2-oxo-1,2-dihydro-spiro[indole-3,3′-pyrrolidin]e-5′-carbonyl]-amino}-3-methoxy-benzoic acid methyl ester]
≤ 20 | ≤ 3.6 |  | COc1cc(C(=O)O)ccc1NC(=O)[C@@H]1N[C@@H](C[C@H](C)C(F)(F)F)[C@@]2(C(=O)Nc3cc(Cl)ccc32)[C@H]1c1cccc(Cl)c1F [Example 65, 4-[[(2′R,3R,3′S,5′S)-6-chloro-3′-(3-chloro-2-fluoro-phenyl)-2-oxo-5′-[(2S)-3,3,3-trifluoro-2-methyl-propyl]spiro[indoline-3,4′-pyrrolidine]-2′-carbonyl]amino]-3-methoxy-benzoic acid]
≤ 71 | ≤ 7.2 |  | COc1cc(C(N)=O)ccc1NC(=O)[C@@H]1N[C@@H](C[C@@H](C)C(F)(F)F)[C@@]2(C(=O)Nc3cc(Cl)ccc32)[C@H]1c1cccc(Cl)c1F (racemic) [Example 13, (2′R,3R,3′S,5′S)-N-(4-carbamoyl-2-methoxy-phenyl)-6-chloro-3′-(3-chloro-2-fluoro-phenyl)-2-oxo-5′-[(2R)-3,3,3-trifluoro-2-methyl-propyl]spiro[indoline-3,4′-pyrrolidine]-2′-carboxamide]
 | ≤ 7.2 | ≤ 500 | CCOC(=O)c1ccc(NC(=O)[C@@H]2N[C@@H](C[C@@H](C)C(F)(F)F)[C@@]3(C(=O)Nc4cc(Cl)ccc43)[C@H]2c2cccc(Cl)c2F)c(OC)c1 [Example 26, ethyl-4-[[(2′R,3′R,3′S,5′S)-6-chloro-3′(3-chloro-2-fluoro-phenyl)-2-oxo-5′-[(2R)-3,3,3-trifluoro-2-methyl-propyl]spiro[indoline-2,4′-pyrrolidine]-2′-carbonyl]amino]-3-methoxy-benzoate]
≤ 71 | ≤ 7.2 |  | COc1cc(C(N)=O)ccc1NC(=O)[C@@H]1N[C@@H](C[C@H](C)C(F)(F)F)[C@@]2(C(=O)Nc3cc(Cl)ccc32)[C@H]1c1cccc(Cl)c1F (racemic) [Example 12, (2′R,3R,3′S,5′S)-N-(4-carbamoyl-2-methoxy-phenyl)-6-chloro-3′-(3-chloro-2-fluoro-phenyl)-2-oxo-5′-[(2S)-3,3,3-trifluoro-2-methyl-propyl]spiro[indoline-3,4′-pyrrolidine]-2′-carboxamide]
≤ 20 | ≤ 3.6 |  | COc1cc(C(N)=O)ccc1NC(=O)[C@@H]1N[C@@H](C[C@H](C)C(F)(F)F)[C@@]2(C(=O)Nc3cc(Cl)ccc32)[C@H]1c1cccc(Cl)c1F [Example 66, (2′R,3R,3′S,5′S)-N-(4-carbamoyl-2-methoxy-phenyl)-6-chloro-3′-(3-chloro-2-fluoro-phenyl)-2-oxo-5′-[(2S)-3,3,3-trifluoro-2-methyl-propyl]spiro[indoline-3,4′-pyrrolidine]-2′-carboxamide]
≤ 71 | ≤ 3.6 |  | COc1cc(C(N)=O)ccc1NC(=O)[C@@H]1N[C@@H](CC(C)(C)CF)[C@@]2(C(=O)Nc3cc(Cl)ccc32)C1c1cccc(Cl)c1F (mixture of isomers) [Example 20, (4-carbamoyl-2-methoxy-phenyl) (2′R,3R,3′S,5′S)-6-chloro-3′-(3-chloro-2-fluoro-phenyl)-5′-(3-fluoro-2,2-dimethyl-propyl)-2-oxo-spiro[indoline-3,4′-pyrrolidine]-2′-carboxamide]
≤ 20 | ≤ 3.6 |  | COc1cc(C(=O)O)ccc1NC(=O)[C@@H]1N[C@@H](C[C@@H](C)C(F)(F)F)[C@@]2(C(=O)Nc3cc(Cl)ccc32)[C@H]1c1cccc(Cl)c1F [Example 27, 4-[[(2′R,3R,3′S,5′S)-6-chloro-3′-(3-chloro-2-fluoro-phenyl)-2-oxo-5′-[(2R)-3,3,3-trifluoro-2-methyl-propyl]spiro[indoline-3,4′-pyrrolidine]-2′-carbonyl]amino]-3-methoxy-benzoic acid]
71 to 550 |  |  | CCOC(=O)c1ccc(NC(=O)[C@@H]2N[C@@H](C[C@H](C)C(F)(F)F)[C@@]3(C(=O)Nc4cc(Cl)ccc43)[C@H]2c2cccc(Cl)c2F)c(OC)c1 [Example 9b, ethyl 4-[[(2′R,3R,3′S,5′S)-6-chloro-3′-(3-chloro-2-fluoro-phenyl)-2-oxo-5′-[(2S)-3,3,3-trifluoro-2-methyl-propyl]spiro[indoline-3,4′-pyrrolidine]-2′-carbonyl]amino]-3-methoxy-benzoate]
≤ 20 | ≤ 7.2 |  | COc1cc(C(N)=O)ccc1NC(=O)[C@@H]1N[C@@H](CC2(CF)CC2)[C@@]2(C(=O)Nc3cc(Cl)ccc32)[C@H]1c1cccc(Cl)c1F [Example 77, (2′R,3R,3′S,5′S)-N-(4-carbamoyl-2-methoxy-phenyl)-6-chloro-3′-(3-chloro-2-fluoro-phenyl)-5′-[[1-(fluoromethyl)cyclopropyl]methyl]-2-oxo-spiro[indoline-3,4′-pyrrolidine]-2′-carboxamide]
≤ 20 | ≤ 7.2 |  | COc1cc(C(=O)O)ccc1NC(=O)[C@@H]1N[C@@H](CC2(CF)CC2)[C@@]2(C(=O)Nc3cc(Cl)ccc32)[C@H]1c1cccc(Cl)c1F [Example 76, 4-[[(2′R,3R,3′S,5′S)-6-chloro-3′-(3-chloro-2-fluoro-phenyl)-5′-[[1-(fluoromethyl)cyclopropyl]methyl]-2-oxo-spiro[indoline-3,4′-pyrrolidine]-2′-carbonyl]amino]-3-methoxy-benzoic acid]
≤ 20 | ≤ 7.2 |  | COc1cc(C(=O)O)ccc1NC(=O)[C@@H]1N[C@@H](CC2(CF)CC2)C2(C(=O)Nc3cc(Cl)ccc32)[C@H]1c1cccc(Cl)c1F (stereo partly shown) [Example 74, 4-{[6-chloro-4′-(3-chloro-2-fluoro-phenyl)-2′-(1-fluoromethyl-cyclopropylmethyl)-2-oxo-1,2-dihydro-spiro[indole-3,3′-pyrrolidin]e-5′-carbonyl]-amino}-3-methoxy-benzoic acid]
≤ 20 | ≤ 7.2 |  | COc1cc(C(N)=O)ccc1NC(=O)[C@@H]1N[C@@H](CC2(CF)CC2)C2(C(=O)Nc3cc(Cl)ccc32)[C@H]1c1cccc(Cl)c1F (stereo partly shown) [Example 75, 6-chloro-4′-(3-chloro-2-fluoro-phenyl)-2′-(1-fluoromethyl-cyclopropylmethyl)-2-oxo-1,2-dihydro-spiro[indole-3,3′-pyrrolidine]-5-carboxylic acid (4-carbamoyl-2-methoxy-phenyl)-amide]
≤ 20 | ≤ 3.6 |  | COc1cc(C(N)=O)ccc1NC(=O)[C@@H]1N[C@@H](CC(C)(C)CF)[C@@]2(C(=O)Nc3cc(Cl)ccc32)C1c1cccc(Cl)c1F (single isomer, unassigned) [Example 22]
≤ 71 | ≤ 7.2 |  | COc1cc(C(=O)O)ccc1NC(=O)[C@@H]1N[C@@H](C[C@H](C)C(F)(F)F)[C@@]2(C(=O)Nc3cc(Cl)ccc32)[C@H]1c1cccc(Cl)c1F (racemic) [Example 10, 4-[[(2′R,3R,3′S,5′S)-6-chloro-3′-(3-chloro-2-fluoro-phenyl)-2-oxo-5′-[(2S)-3,3,3-trifluoro-2-methyl-propyl]spiro[indoline-3,4′-pyrrolidine]-2′-carbonyl]amino]-3-methoxy-benzoic acid]
≤ 71 | ≤ 7.2 |  | COc1cc(C(=O)O)ccc1NC(=O)[C@@H]1N[C@@H](C[C@@H](C)C(F)(F)F)[C@@]2(C(=O)Nc3cc(Cl)ccc32)[C@H]1c1cccc(Cl)c1F (racemic) [Example 11, 4-[[(2′R,3R,3′S,5′S)-6-chloro-3′-(3-chloro-2-fluoro-phenyl)-2-oxo-5′-[(2R)-3,3,3-trifluoro-2-methyl-propyl]spiro[indoline-3,4′-pyrrolidine]-2′-carbonyl]amino]-3-methoxy-benzoic acid]
